Laboratory results: patent EP1037653B1, “COMPOSITIONS AND METHODS FOR REGULATING PHAGOCYTOSIS AND ICAM-1 EXPRESSION” (JOHNSON & JOHNSON CONSUMER COMPANIES, INC., priority 1997, dated 1999)

Legend:
[1] = tested on: human primary keratinocytes; assay: Fluorescent microsphere ingestion (phagocytosis), fluorescence microscopy; format: cell-based; conditions: treated two days; Compound I 1µM, SLIGRL 10µM; vs vehicle control; Figure 1
Protocol: (§1) In order to study the role of the PAR-2 pathway in phagocytosis, several in vitro model systems were used. One system used contained primary human keratinocytes or a human keratinocyte cell line. In this and a number of following examples, cells were treated with test compounds for different amounts of time (from one hour to three days), and samples were then incubated with fluorescent microspheres for two hours. The beads ingested by the cells were photographed using fluorescence microscopy.
(§2) In this example, human primary keratinocytes or the human keratinocyte cell line HaCaT were used as in vitro model systems to study the effect of PAR-2 regulators on keratinocyte phagocytosis. The human primary keratinocytes used are commercially available from Clonetics (San Diego, CA). Cells were plated on chamber slides, at 2 chambers/slide and 60,000 cells/chamber. […]

[2] = tested on: human keratinocyte cell line HaCaT; assay: as above; format: cell-based; conditions: Figure 2, repeated at least three times
Protocol: as §1, §2

[3] = tested on: macrophage cell line IC-21; assay: Fluorescent microsphere ingestion (phagocytosis); format: cell-based; conditions: IC-21 macrophages
Protocol: (§3) In this example, human primary keratinocytes or the human keratinocyte cell line HaCaT were used as in vitro model systems to study the effect of PAR-2 regulators on keratinocyte phagocytosis. The human primary keratinocytes used are commercially available from Clonetics (San Diego, CA). Cells were plated on chamber slides, at 2 chambers/slide and 60,000 cells/chamber. Cells were treated once daily, for two or three days, with Compound I (1µM), SLIGRL (10µM), or vehicle (Phosphate-buffered saline, ("PBS") from Gibco-BRL (Gaithersburg, MD). After two or three days of exposure to the test compounds, cells were exposed to Nile-red or FITC fluorescent microspheres, 1 µm in diameter, 50 microspheres/cell, for two hours at 37°C. Microspheres were from Molecular Probes (Eugene, OR), and were processed according to manufacturer's instructions. Following that treatment, cells were incubated with 15% Fetal Bovine Serum ("FBS", from Gibco-BRL), for 15 minutes at 37°C and rinsed with PBS. At that time, chambers were separated from the slides, and the slides were covered with glycerol and coverslips. Fluorescent microscopy was performed using a Zeiss Axiovert 35 or a Nikon Optiphot-2 microscope.
The experiment described in Example 1 was repeated using the macrophage cell line IC-21 (obtained from the ATCC), which shares phagocytic characteristics with peritoneal macrophages. […]

[4] = tested on: macrophage cell line IC-21; assay: Vybrant Phagocytosis Assay Kit, ingestion of fluorescein-labeled E. Coli K-12 particles; format: cell-based; conditions: treated overnight; 100nM Compound I, 5µM SLIGRL, 0.1 mg/ml STI; untreated control = 100; one of three experiments
Protocol: To better quantify the level of phagocytosis, the "vybrant™ Phagocytosis Assay Kit" of Molecular Probes (Eugene, Oregon) was used, following manufacturer's instructions, with modification of cell culture conditions for the IC-21 cell line. This kit uses Fluorescein-labeled E. Coli K-12 particles, and is designed for quantifying the effects of drugs or other environmental factors on phagocytic functions. Macrophages were treated overnight with 100nM of Compound I, 5µM of SLIGRL, or 0.1 mg/ml of STI, all dissolved in PBS. The ability of the treated macrophages to ingest the fluorescent E. Coli, as measured by this kit, is documented in Table 1. This experiment was repeated three times.
In order to verify the quantitative nature of the macrophage-phagocytosis assay, a dose-response experiment was performed. Macrophages were treated with 0, 0.01, 0.1 and 1 mg/ml of STI, and the experiment was performed as described in Example 3. […] Each experiment was repeated three times.

Human keratinocytes [5] = assay: Keratinocyte microsphere phagocytosis dose-response, image analysis of fluorescent beads; format: cell-based; conditions: two days; SLIGRL 0, 5 and 10 µM; Compound I 1pM to 1µM; STI 0.01 to 1 mg/ml
Protocol: as §3, with “microscope. […]” for “microscope.”
Image analysis of the fluorescent beads inside the keratinocytes was used as an alternative way to quantify the phagocytic effect in this system. […]

Human keratinocytes [6] = assay: Timing of effect on keratinocyte microsphere phagocytosis; format: cell-based; parameters: key: +: Plus signs indicate an effect on phagocytosis; -: minus signs indicate no effect on phagocytosis; -/+: plus/minus signs indicate a marginal effect on phagocytosis; conditions: decrease for Compound I, increase for SLIGRL
Protocol: as §3
Human keratinocytes were treated with Compound I or SLIGRL for periods of time ranging from one hour to two days. At the end of the treatment period, the cells were treated with microspheres as described in Example 1. […] Plus signs indicate an effect on phagocytosis, minus signs indicate no effect on phagocytosis, and plus/minus signs indicate a marginal effect on phagocytosis. The effects measured were a decrease for Compound I and an increase for SLIGRL. […] This implies that the PAR-2 signaling results in new protein synthesis, a reduction in protein synthesis when a turnover time is required to eliminate the existing relevant protein(s), or a rearrangement of proteins (as occurs in the reorganization of cytoskeletal components).

Keratinocytes [7] = assay: Melanin uptake by keratinocytes, Fontana-Mason staining; format: cell-based; conditions: treated two days; melanin powder two hours; Figure 5A; same results with isolated melanosomes (Figure 5B)
Protocol: This example tests the ability of keratinocytes to acquire melanin or melanosomes in vitro, and thus function as a simplified system for melanosome uptake in the skin. Keratinocytes were plated in glass chamber-slides as described earlier, and were treated for two days with SLIGRL, Compound I or STI. At that time, melanin powder (from Sigma, St. Louis, MO) was mixed in sterile PBS at 10 µg/ml, and was added to the culture media (1:10 dilution) for two hours. Cells were then washed with PBS and stained with Fontana-Mason ("F&M") staining. F&M stains silver nitrate-reducing molecules, thereby permitting the identification of melanins inside the keratinocytes. […] This system, therefore, can mimic melanosome transfer and melanin distribution in vivo, as skin keratinocytes use melanin as an UV-protective cap over their nuclei. […] The same results were also observed using melanosomes isolated as described in S. Orlow, et al., J.I.D. 100:55-64 (1993) (Figure 5B).

[8] = tested on: Primary melanocyte cultures plated under epidermal equivalents (EpiDerm); assay: Melanosome transfer (pigmentation) in equivalent-monolayer co-culture without keratinocyte-melanocyte contact; format: cell-based; conditions: no keratinocyte/melanocyte contact
Protocol: (§4) Since PAR-2 is expressed in keratinocytes, but not in melanocytes, the possible requirement of keratinocyte-melanocyte contact was tested for the effect of Compound I and SLIGRL on melanosome phagocytosis by the keratinocytes. Primary melanocyte cultures (commercially available from Clonetics, San Diego) were plated under epidermal equivalents (EpiDerm, of MatTek, Ashland, MA) to create an equivalent-monolayer co-culture with no contact between keratinocytes and melanocytes. These co-cultures were compared to MelanoDerm equivalents (of MatTek), where melanocytes are present in the basal layer of the equivalent. Cultures were treated with Compound I, with the […] agonist SLIGRL. As set forth in Table 3, keratinocytes are indicated by "K", melanocytes are indicated by "M", and lack of keratinocyte-melanocyte contact is indicated as "no K-M cont". […] The same result was also observed with monolayer keratinocyte/melanocyte co-cultures having keratinocyte/melanocyte contact.

MelanoDerm equivalents = assay: Melanosome transfer (pigmentation) in melanocyte-containing equivalents; format: cell-based; conditions: same result in monolayer co-cultures with keratinocyte/melanocyte contact
Protocol: as §4

ICAM-1 [9] = assay: ICAM-1 immunofluorescent staining of keratinocytes; format: cell-based, human; conditions: vs untreated keratinocytes; Figure 6A
Protocol: Intercellular adhesion molecule-1 (ICAM-1) is an inducible cell-surface glycoprotein that is implicated in cell-cell adhesion, cell membrane raffling and phagocytosis. Therefore, the effect of PAR-2 modulation on ICAM-1 was tested. Keratinocytes were grown in chamber slides and treated with SLIGRL, Compound I and STI as described, followed by immunofluorescent staining for ICAM-1 using standard procedures. Normal donkey serum, (used at 1:5 dilution), was obtained from Jackson Immunoresearch Laboratory (Westgrove, PA). A polyclonal goat antihuman ICAM-1 antibody, (used at 1:200 dilution), was obtained from R&D Systems (Minneapolis, MN), and FITC-conjugated donkey anti-goat antibody was obtained from Jackson Immunoresearch Laboratory. […] In untreated keratinocytes, ICAM-1 was localized mainly to the plasma membrane, with some staining at the nuclear membrane.

ICAM-1 [10] = assay: ICAM-1 immuno-precipitation and Western blotting in keratinocytes; format: cell-based; conditions: treated keratinocytes; Figure 6B
Protocol: Immuno-precipitation and Western blotting experiments were performed, according to known methods, to assess the level of ICAM-1 protein in treated keratinocytes.

Human PMN cells = assay: Boyden chamber chemotactic cell migration towards FMLP; format: cell-based; conditions: with FMLP; cells counted at 115 microns; pretreated with 5 or 0.5 mg/ml STI, 1 or 0.1 µM Compound I; FMLP alone 41
Protocol: Since ICAM-1 is involved in cell migration, cell migration towards a chemotactic peptide was studied in cells treated with Compound I and STI. Human PMN cells were placed in one side of a Boyden chamber, using standard techniques, and a chemotactic peptide (FMLP) was placed in the other chamber. Cells were allowed to migrate into the second chamber, and the number of migrating cells per field and distance of migration were calculated. The experiment was repeated with PMN cells pretreated with one of the following: 5 or 0.5 mg/ml STI, 1 or 0.1 µM Compound I, a buffer vehicle, and with and without chemotactic peptide. The number of cells per field that migrated the same distance as the untreated control was measured. Without the peptide and with no treatment, an average of 19 cells/field were migrating a distance of 80 microns. […] In other words, no cells (or less than 5/field) were identified at 115 microns. […] The ability to inhibit PMN migration is an important constituent of anti-inflammatory compounds.

Keratinocytes [11] = assay: Scanning electron microscopy of cell podia; format: cell-based; conditions: treated two days; vs vehicle-treated controls; Figure 8
Protocol: Both phagocytosis and cell migration involve changes in cell shape. Therefore, the effect of the PAR-2 pathway reagents on cell podia were studied using scanning electron microscopy. Keratinocytes were treated with Compound I (identified as "SH00230"), SLIGRL and a buffer vehicle for two days, and then processed for SEM using standard techniques. […] In other words, the cells' "fingers" are shorter and malformed, so they cannot grasp objects as well as can the control cells. […] In other words, these cells have a greater probability for productive interaction with particles. Comparing these SEM pictures in Figure 8, it is clear that SLIGRL-treated cells have a greater ability to interact with particles, while Compound 1-treated cells are less suited for such a task.

Keratinocytes [12] = assay: F-actin staining, cytoskeletal organization; format: cell-based; conditions: Compound I 10 nM, STI 0.1 mg/ml, SLIGRL 5 µM; Figure 9
Protocol: Therefore, the organization of F-actin filaments following PAR-2 modulation was tested. Keratinocytes were treated with Compound I (10 nM), STI (0.1 mg/ml), or with SLIGRL (5 µM) as described in Example 1, and stained for F-actin using standard techniques.

With “(S)-N-Methyl-D-phenylalanyl-N-[4-[(aminoiminomethyl)amino]-1-(2-benzothiazolylcarbonyl)butyl]-L-prolinamide [Compound I]” the “quantity of ingested microspheres” value [1] was “dramatic reduction in the quantity of ingested microspheres”, the microsphere ingestion [2] was “reduce microsphere ingestion” and the “number of microspheres ingested” value [3] was “reduced”. For the same substance, the “% effect (ingestion)” value [4] was 89.9 +/- 13.6%, the “phagocytosis with increasing concentrations” value (Human keratinocytes [5]) was “dose-dependent decrease in phagocytosis” and the effect on phagocytosis (Human keratinocytes [6]; Time of Treatment 1 hour) was “-”. The effect on phagocytosis (Human keratinocytes [6]; Time of Treatment 2 hours) was “-”, the effect on phagocytosis (Human keratinocytes [6]; Time of Treatment 4 hours) was “-” and the effect on phagocytosis (Human keratinocytes [6]; Time of Treatment 6 hours) was “-”. The effect on phagocytosis (Human keratinocytes [6]; Time of Treatment 8 hours) was “-/+”, the effect on phagocytosis (Human keratinocytes [6]; Time of Treatment 16 hours) was “+” and the effect on phagocytosis (Human keratinocytes [6]; Time of Treatment 24 hours) was “+”. For the same substance, the effect on phagocytosis (Human keratinocytes [6]; Time of Treatment 48 hours) was “+”, the “uptake of melanin by keratinocytes” value (Keratinocytes [7]) was “dramatically reduce the uptake of melanin” and the “effect on melanosome transfer, measured as the level of pigmentation” value [8] was “no effect on melanosome transfer”. The “pigmentation by affecting melanosome transfer” value (MelanoDerm equivalents) was “reduced”, the “intracellular localization of ICAM-1” value (ICAM-1 [9]) was “less staining was observed at the cytoplasmic membrane, and more at the nuclear membrane” and the “level of ICAM-1 protein” value (ICAM-1 [10]) was “decreased the level of ICAM-1 expression”. For the same substance, the Cells/Field (Human PMN cells) was <5, the “shape of cell podia” value (Keratinocytes [11]) was “dramatically shorter podia” and the actin filaments organization (Keratinocytes [12]) was “reduced the ordered organization of the cell cortex”.
